Where a name gives a salt, the structure may show the parent alone. Read-outs that look alike come from different tables or passages of the source. Marks after values point to notes of the source that are not given here.
How the values were obtained:
Type in all cases: cell-based
5-HT2B = 5-HT2B (Homo sapiens (Human), UniProt P41595); assay: IP assay (Eurofins, IP1 HTRF), HEK293 cells; conditions: for 5-HT2B Rmax: % of Rmax of 5-HT; for EC50: duplicate determinations, read-out: 5-HT2B EC50; for Selectivity EC50 5-HT2B/EC50 5-HT2A: bounds are conservative estimates;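 for all read-outs here: agonist effect read as cellular IP1 production by HTRF using a europium cryptate anti-IP1 antibody donor and D2-labeled IP1 acceptor, eight compound concentrations in each cell line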
Chain of 5-HT2B (P41595 whole entry, looked up): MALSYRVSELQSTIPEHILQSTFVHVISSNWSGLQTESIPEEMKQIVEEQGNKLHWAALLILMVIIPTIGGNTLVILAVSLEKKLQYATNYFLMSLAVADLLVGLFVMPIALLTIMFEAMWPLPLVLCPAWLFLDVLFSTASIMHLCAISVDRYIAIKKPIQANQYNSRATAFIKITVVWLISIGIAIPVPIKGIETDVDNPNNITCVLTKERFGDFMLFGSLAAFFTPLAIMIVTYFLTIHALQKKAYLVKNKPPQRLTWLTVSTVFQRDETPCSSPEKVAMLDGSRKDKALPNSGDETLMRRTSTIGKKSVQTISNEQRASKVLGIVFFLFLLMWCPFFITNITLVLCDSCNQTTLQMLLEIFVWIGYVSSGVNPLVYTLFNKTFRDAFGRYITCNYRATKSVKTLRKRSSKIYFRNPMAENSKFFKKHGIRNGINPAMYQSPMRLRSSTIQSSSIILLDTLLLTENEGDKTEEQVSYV
Method: The agonist properties of the compounds were characterized at HEK293 cell lines expressing the human 5-HT2A, human 5-HT2B or human 5-HT2C receptors in an IP assay essentially as previously described.^19 The testing was performed by Eurofins. In the assay, the agonist activity of the compound at the receptors is investigated by measuring its effect on IP1 production in the cell using the Homogeneous Time Resolved Fluorescence (HTRF) detection method. […] Following incubation, the cells were lysed, and the fluorescence acceptor (D2-labeled IP1) and fluorescence donor (anti-IP1 antibody labeled with europium cryptate) were added. […] The test compounds were characterized in eight different concentrations in duplicate at each of the three cell lines.

human 5-HT2A [1] = target: T1, human 5-HT2A (Homo sapiens (Human), UniProt P28223); assay: cell-based; conditions: IP assay; for 5-HT2A Rmax: % of Rmax of 5-HT; for EC50: duplicate determinations
5-HT2C = 5-HT2C (Homo sapiens (Human), UniProt P28335); assay: Ca2+/Fluo-4 assay, stable h5-HT2C-HEK293 cell line; conditions: for 5-HT2C Rmax ± S.E.M: % of the Rmax of 5-HT; for EC50: agonist potency, n = 3-4;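 for all read-outs here: Agonist-induced intracellular Ca2+ rise read by Fluo-4 fluorescence in HEK293 cells stably expressing the human 5-HT2C receptor, each compound run in duplicate on three or more occasions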
Chain of 5-HT2C (P28335 whole entry, looked up): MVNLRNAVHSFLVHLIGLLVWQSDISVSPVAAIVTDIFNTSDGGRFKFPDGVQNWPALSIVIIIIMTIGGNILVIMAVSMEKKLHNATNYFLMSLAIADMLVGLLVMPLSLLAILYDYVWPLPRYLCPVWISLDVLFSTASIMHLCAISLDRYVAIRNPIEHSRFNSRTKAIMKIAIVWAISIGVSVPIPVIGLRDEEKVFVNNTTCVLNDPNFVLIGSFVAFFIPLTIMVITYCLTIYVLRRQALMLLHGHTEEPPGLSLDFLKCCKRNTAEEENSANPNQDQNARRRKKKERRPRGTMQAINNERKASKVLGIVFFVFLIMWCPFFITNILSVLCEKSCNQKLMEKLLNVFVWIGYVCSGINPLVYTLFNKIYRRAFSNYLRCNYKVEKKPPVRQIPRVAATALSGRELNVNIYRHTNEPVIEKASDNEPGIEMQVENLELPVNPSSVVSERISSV

human 5-HT2A [2] = target: T1, human 5-HT2A; assay: cell-based; conditions: for 5-HT2A Rmax ± S.E.M: % of the Rmax of 5-HT; for EC50: agonist potency, n = 3-4; for Selectivity EC50 5-HT2C/EC50 5-HT2A: Ca2+/Fluo-4 assay, bounds are conservative estimates
[3] = read-out: 5-HT2A [pEC50 ± S.E.M.] (converted)
[4] = read-out: 5-HT2C [pEC50 ± S.E.M.] (converted)

## CCSc1cc(OC)c([C@@H]2CCCNC2)cc1OC.Cl [Compound 28, (S)-3-(2,5-dimethoxy-4-(ethylthio)phenyl)piperidine hydrochloride]
5-HT2B
  5-HT2B Rmax: 55%
  EC50: 0.24 µM
Human 5-HT2A [1]
  5-HT2A Rmax: 62%
  EC50: 0.18 µM

## COc1cc([C@H]2CCCNC2)c(OC2CC2)cc1C(F)(F)F [Compound 54, (R)-3-(2-cyclopropoxy-5-methoxy-4-(trifluoromethyl)phenyl)piperidine hydrochloride]
5-HT2C
  5-HT2C Rmax ± S.E.M: ~46-63^c %
5-HT2C; read-out: 5-HT2C EC50
  EC50: 3 to 10 µM
Human 5-HT2A [2]
  5-HT2A Rmax ± S.E.M: 76 ± 4%
Human 5-HT2A [2]; read-out: 5-HT2A EC50
  EC50: 1.8 µM
Human 5-HT2A [2]; [3]
  EC50: 1.78 µM

## COc1cc(C(F)(F)F)c(OC)cc1C1CNC1.Cl [Compound 2, 3-(2,5-dimethoxy-4-(trifluoromethyl)phenyl)azetidine Hydrochloride]
5-HT2C
  5-HT2C Rmax ± S.E.M: 87 ± 4%
5-HT2C; read-out: 5-HT2C EC50
  EC50: 0.0052 µM
Human 5-HT2A [2]
  5-HT2A Rmax ± S.E.M: 95 ± 2%
  Selectivity EC50 5-HT2C/EC50 5-HT2A: 5.2
Human 5-HT2A [2]; [3]
  EC50: 0.001 µM

## COc1cc([C@H]2CCNC2)c(OC)cc1Br [Compound 3, (R)-3-(4-bromo-2,5-dimethoxyphenyl)pyrrolidine]
5-HT2C
  5-HT2C Rmax ± S.E.M: 73 ± 3%
5-HT2C; [4]
  EC50: 0.0257 µM
Human 5-HT2A [2]
  5-HT2A Rmax ± S.E.M: 57 ± 3%
  Selectivity EC50 5-HT2C/EC50 5-HT2A: 4.9
Human 5-HT2A [2]; read-out: 5-HT2A EC50
  EC50: 0.0053 µM
Human 5-HT2A [2]; [3]
  EC50: 0.00776 µM

## CCc1cc(OC)c([C@H]2CCCNC2)cc1OC [Compound 31, (R)-3-(4-ethyl-2,5-dimethoxyphenyl)piperidine hydrochloride]
5-HT2C; read-out: 5-HT2C EC50
  EC50: 0.64 µM
Human 5-HT2A [2]; read-out: 5-HT2A EC50
  EC50: 0.11 µM
Human 5-HT2A [2]; [3]
  EC50: 0.115 µM

## CCOc1cc(C(F)(F)F)c(OC)cc1[C@H]1CCCNC1.Cl [Compound 29, (R)-3-(2-ethoxy-5-methoxy-4-(trifluoromethyl)phenyl)piperidine hydrochloride]
5-HT2C; read-out: 5-HT2C EC50
  EC50: 2.7 µM
5-HT2C; [4]
  EC50: 2.75 µM
Human 5-HT2A [2]
  5-HT2A Rmax ± S.E.M: 77 ± 7%
Human 5-HT2A [2]; read-out: 5-HT2A EC50
  EC50: 0.41 µM

## COc1cc(C(F)(F)F)c(F)cc1[C@@H]1CCCNC1.Cl [Compound 51, (S)-3-(5-fluoro-2-methoxy-4-(trifluoromethyl)phenyl)piperidine hydrochloride]
5-HT2B
  5-HT2B Rmax: 37%
  Selectivity EC50 5-HT2B/EC50 5-HT2A: 2.8
  EC50: 0.74 µM
Human 5-HT2A [1]
  5-HT2A Rmax: 59%
  EC50: 0.26 µM
Human 5-HT2A [2]
  5-HT2A Rmax ± S.E.M: 79 ± 5%
  Selectivity EC50 5-HT2C/EC50 5-HT2A: >100^e
Human 5-HT2A [2]; read-out: 5-HT2A EC50
  EC50: 0.14 µM

## CCCCc1cc(OC)c([C@H]2CCCNC2)cc1OC [Compound 56, (R)-3-(4-butyl-2,5-dimethoxyphenyl)piperidine hydrochloride]
5-HT2C; read-out: 5-HT2C EC50
  EC50: 1.6 µM
Human 5-HT2A [2]; read-out: 5-HT2A EC50
  EC50: 0.34 µM
Human 5-HT2A [2]; [3]
  EC50: 0.347 µM

## COc1cc(C2CNC2)c(OC)cc1Br.Cl [Compound 1, 3-(4-bromo-2,5-dimethoxyphenyl)azetidine hydrochloride]
5-HT2C
  5-HT2C Rmax ± S.E.M: 90 ± 3%
5-HT2C; read-out: 5-HT2C EC50
  EC50: 0.0058 µM
Human 5-HT2A [2]
  5-HT2A Rmax ± S.E.M: 97 ± 3%
  Selectivity EC50 5-HT2C/EC50 5-HT2A: 3.6
Human 5-HT2A [2]; [3]
  EC50: 0.00158 µM

## Br.COc1cc([C@@H]2CCNC2)c(OC)cc1Br [Compound 4, (S)-3-(4-bromo-2,5-dimethoxyphenyl)pyrrolidine Hydrobromide]
5-HT2C
  5-HT2C Rmax ± S.E.M: 16 ± 3%
5-HT2C; [4]
  EC50: 0.0178 µM
Human 5-HT2A [2]
  5-HT2A Rmax ± S.E.M: 39 ± 4%
  Selectivity EC50 5-HT2C/EC50 5-HT2A: 2.3
Human 5-HT2A [2]; read-out: 5-HT2A EC50
  EC50: 0.0077 µM

## COc1cc(C(F)(F)F)ccc1[C@H]1CCCNC1 [Compound 52, (R)-3-(2-methoxy-4-(trifluoromethyl)phenyl)piperidine hydrochloride]
5-HT2C; read-out: 5-HT2C EC50
  EC50: 1.4 µM
Human 5-HT2A [2]
  5-HT2A Rmax ± S.E.M: 77 ± 2%
Human 5-HT2A [2]; read-out: 5-HT2A EC50
  EC50: 0.48 µM

## CCOc1cc(C(F)(F)F)c(OCC)cc1[C@@H]1CCCNC1.Cl [Compound 22, (S)-3-(2,5-diethoxy-4-(trifluoromethyl)phenyl)piperidine hydrochloride]
5-HT2B
  Selectivity EC50 5-HT2B/EC50 5-HT2A: >1,000^c
  EC50: > 100 µM
Human 5-HT2A [1]
  5-HT2A Rmax: 54%
  EC50: 0.17 µM
Human 5-HT2A [2]
  5-HT2A Rmax ± S.E.M: 47 ± 6%
  Selectivity EC50 5-HT2C/EC50 5-HT2A: >300^e
Human 5-HT2A [2]; read-out: 5-HT2A EC50
  EC50: 0.1 µM
Human 5-HT2A [2]; [3]
  EC50: 0.102 µM

## COc1cc([C@H]2CCCNC2)c(OC)cc1SC [Compound 17, (R)-3-(2,5-dimethoxy-4-(methylthio)phenyl)piperidine hydrochloride]
5-HT2C; read-out: 5-HT2C EC50
  EC50: 2.3 µM
5-HT2C; [4]
  EC50: 2.34 µM
Human 5-HT2A [2]; read-out: 5-HT2A EC50
  EC50: 0.18 µM
Human 5-HT2A [2]; [3]
  EC50: 0.178 µM

## COc1cc(C(F)(F)F)c(OC)cc1[C@H]1CCNC1 [Compound 5, (R)-3-(2,5-dimethoxy-4-(trifluoromethyl)phenyl)pyrrolidine]
5-HT2C
  5-HT2C Rmax ± S.E.M: 65 ± 4%
5-HT2C; [4]
  EC50: 0.0407 µM
Human 5-HT2A [2]
  5-HT2A Rmax ± S.E.M: 45 ± 1%
  Selectivity EC50 5-HT2C/EC50 5-HT2A: 3.7
Human 5-HT2A [2]; read-out: 5-HT2A EC50
  EC50: 0.011 µM
Human 5-HT2A [2]; [3]
  EC50: 0.0105 µM

## COc1cc([C@@H]2CCCNC2)c(OC)cc1SC(C)C [Compound 26, (S)-3-(4-(isopropylthio)-2,5-dimethoxyphenyl)piperidine]
5-HT2B
  5-HT2B Rmax: 43%
  EC50: 1.2 µM
Human 5-HT2A [1]
  5-HT2A Rmax: 72%
  EC50: 1.1 µM
Human 5-HT2A [2]; read-out: 5-HT2A EC50
  EC50: 0.16 µM
Human 5-HT2A [2]; [3]
  EC50: 0.155 µM
